What was measured:
[1] = system: wild-type and LAR−/− mice; assay: In vivo angiogenesis assay (Matrigel plug); design: species or system mouse; settings: in the presence of PPP
Description: The Matrigel plug assay was used to assess in vivo angiogenesis. […] Mice were sacrificed after 10 days and the plugs were carefully dissected from the mice. The plugs were weighed, analyzed histologically or for hemoglobin content using Drabkin hemoglobin assay kit (Sigma Chemical Co., St. Louis, Mo.). Hemoglobin levels in the Matrigel plugs correlate well with blood vessel growth (Volin et al., Am. J. Pathol. 159:1521 (2001)). The Matrigel plugs were homogenized on ice and centrifuged. Fifty μl of the supernatant were mixed with 950 μl Drabkin's reagent and the reaction was allowed to develop at room temperature for 30 min. Absorbance was read at 540 nm and hemoglobin concentration was determined by comparison to a standard curve generated using known concentrations of hemoglobin. For histological analysis, Matrigel plugs were formalin-fixed, paraffin-embedded, cut into 5 μm sections, and Massons trichrome-stained. In brief, sections were hydrated in distilled water, incubated in Bouin's fixative for 3 h to overnight, and then washed in running tap water until yellow color disappeared. […] Image J was used to quantify the number of vessel-like structures in each field. Total number of microvessels containing red blood cells and number of capillaries in a high power field (20× magnifications) were counted. […]

HUVECs = assay: Matrigel morphogenesis assay (endothelial tube/cord formation); assay type: cell-based, human; settings: 1 μM PPP
Experimental: Growth factor-reduced Matrigel was thawed at 4° C. on ice and 300 μl/well were added to a 24-well plate prechilled at −20° C. using a cold pipette. Matrigel was allowed to polymerize for 30 min at 37° C. HUVECs were either left uninfected or were infected with AdLAR or Adβ-gal. In a separate set of experiments, HUVECs were transfected with LAR siRNA or control siRNA as described above. […] In vitro tube formation was assessed after 5 h incubation. Cell cultures were observed under a phase contrast microscope and photographed in five different random fields (10× magnification). The mean tube length per field was quantified using NIH Image J.

IGF-1Rβ = molecular target: T1, IGF-1Rβ (Homo sapiens, UniProt P08069); assay: IGF-1-induced IGF-1Rβ autophosphorylation in HUVECs (immunoprecipitation/Western); assay type: cell-based
T1 construct: endogenous in cells; host or cells: HUVEC (Cambrex)
Experimental: (§1) Human umbilical vein endothelial cells (HUVECs) were purchased from Cambrex (San Diego, Calif.) and were maintained in medium 199 (Mediatech, Inc, Herndon, Va.) containing 90 μg/ml heparin, 30 μg/ml endothelial cell growth supplements (BD Biosciences, Bedford, Mass.), 20% FBS, 50 μg/mL gentamicin, and 50 μg/mL amphotericin. Cultures were maintained at 37° C. in a humidified incubator (95% air, 5% CO2). HUVECs, grown to 80% confluence, were growth arrested by overnight incubation in medium 199 supplemented with 0.1% serum.
(§2) Preparation of cell lysates, immunoprecipitation and immunoblotting were performed as described (Reinmuth et al., Clin. Cancer Res. 8:3259 (2002)).
(§3) Adenoviral infection of nearly confluent HUVECs was performed with indicated multiplicity of infection in medium 199 containing 2% FBS. After 16 h incubation, the cells were quiesced overnight in medium 199 containing 0.1% FBS. Then HUVECs were treated with the indicated agonists in serum-free medium 199.
(§4) The LAR siRNA (sc-35793, containing three siRNAs (SEQ ID NOS:1-3)) and a scrambled, non-silencing siRNA (sc-36869) were obtained from Santa Cruz Biotechnology. […] HUVECs were treated with the indicated agonists in serum-free medium 199 and LAR expression was assessed by Western analysis.

[2] = system: aortic rings from wild-type and LAR−/− mice; assay: Ex vivo angiogenesis assay (aortic ring sprouting); design: species or system mouse
Experimental: The angiogenesis assay was performed as described previously (Huang et al., J. Biol. Chem. 277:10760 (2002)) with some modifications. Thoracic aortas were excised from 8-12-week-old wild-type and LAR knockout male mice (DBA background) and immediately placed into cold medium 199 containing 10% FBS. Clotted blood inside the aortas was flushed with media, and the periadventitial fibroadipose tissue was removed. Aortas were then cut into cross-sectional rings of ˜1-1.5 mm in length. Rings were placed into 60-mm dishes containing 0.4 ml of cold growth factor-reduced Matrigel and then incubated at 37° C. until the Matrigel was polymerized. The aortic rings embedded in the Matrigel were overlaid with 0.5 ml of serum-free endothelial cell growth medium with or without the growth factors. The rings were maintained at 37° C. for up to 10 days with medium changes every 2 days. Vascular sprouting from the rings was examined daily under a Leica microscope (10× magnification), and digital images were obtained. Quantitative analysis of endothelial sprouting was performed using images from day 10, and sprout length was quantified using NIH Image J. The distance from the aortic ring body to the end of the vascular sprouts was measured at three distinct points per ring.

Akt, eNOS and ERK1/2 = assay: IGF-1-induced phosphorylation of Akt, eNOS and ERK1/2 in HUVECs (Western); assay type: cell-based, human; settings: 100 ng/mL IGF-1, AdLAR at 2.5 MOI
Experimental: as §1, §2, §3, §4

T1 sequence (P08069 31-1367): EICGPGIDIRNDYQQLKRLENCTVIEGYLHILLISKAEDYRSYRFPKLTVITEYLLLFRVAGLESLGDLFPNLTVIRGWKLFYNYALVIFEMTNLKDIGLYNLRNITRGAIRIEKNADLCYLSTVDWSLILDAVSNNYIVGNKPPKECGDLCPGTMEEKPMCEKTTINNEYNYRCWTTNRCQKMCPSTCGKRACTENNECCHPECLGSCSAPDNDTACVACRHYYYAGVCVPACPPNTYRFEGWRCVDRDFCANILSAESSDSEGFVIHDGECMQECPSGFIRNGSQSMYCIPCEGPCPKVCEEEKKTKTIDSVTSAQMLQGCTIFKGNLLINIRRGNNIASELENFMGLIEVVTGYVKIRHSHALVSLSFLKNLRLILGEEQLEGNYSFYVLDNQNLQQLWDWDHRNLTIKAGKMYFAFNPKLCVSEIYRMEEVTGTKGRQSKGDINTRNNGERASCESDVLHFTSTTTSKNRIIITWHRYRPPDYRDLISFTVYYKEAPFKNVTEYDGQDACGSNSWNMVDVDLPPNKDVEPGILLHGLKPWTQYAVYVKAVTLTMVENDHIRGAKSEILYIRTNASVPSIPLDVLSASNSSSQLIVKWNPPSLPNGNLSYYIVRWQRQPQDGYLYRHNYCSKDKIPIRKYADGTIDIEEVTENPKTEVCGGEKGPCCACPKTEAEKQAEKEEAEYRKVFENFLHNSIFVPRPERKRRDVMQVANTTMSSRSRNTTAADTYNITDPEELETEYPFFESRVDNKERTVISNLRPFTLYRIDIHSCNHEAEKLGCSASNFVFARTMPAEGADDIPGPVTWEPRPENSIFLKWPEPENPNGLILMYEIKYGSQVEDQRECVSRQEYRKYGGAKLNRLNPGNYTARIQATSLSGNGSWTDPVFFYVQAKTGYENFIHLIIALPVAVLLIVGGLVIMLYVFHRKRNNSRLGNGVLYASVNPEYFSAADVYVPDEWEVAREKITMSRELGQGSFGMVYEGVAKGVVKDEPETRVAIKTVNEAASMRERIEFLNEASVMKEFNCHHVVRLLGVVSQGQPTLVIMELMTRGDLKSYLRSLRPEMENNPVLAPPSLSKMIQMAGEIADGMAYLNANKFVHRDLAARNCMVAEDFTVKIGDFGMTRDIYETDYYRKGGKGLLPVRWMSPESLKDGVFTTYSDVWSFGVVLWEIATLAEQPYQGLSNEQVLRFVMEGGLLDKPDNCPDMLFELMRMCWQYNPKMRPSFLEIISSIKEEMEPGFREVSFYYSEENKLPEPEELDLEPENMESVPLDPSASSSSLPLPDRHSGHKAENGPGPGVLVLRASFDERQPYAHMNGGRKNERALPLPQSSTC

Molecule | Number of microvessels in IGF-1 embedded Matrigel plugs ([1]; LAR−/− mice) | Hemoglobin content of IGF-1 embedded Matrigel plugs ([1]; 10 days, significant in LAR−/− mice (P=0.01)) | IGF-1-induced cord formation in scrambled siRNA and LAR siRNA transfected HUVECs (HUVECs) | IGF-1Rβ autophosphorylation in HUVECs treated with IGF-1 (IGF-1Rβ; 1 μM PPP) | IGF-1Rβ autophosphorylation in HUVECs treated with IGF-1, dose dependence (IGF-1Rβ; PPP pretreatment 1 h, 100 ng/mL IGF-1 10 min) | Mean length of sprouts from IGF-1 treated wild-type and LAR−/− aortic rings ([2]; 1 μM PPP, 10 days in Matrigel) | IGF-1-induced phosphorylation of Akt, eNOS and ERK1/2 (Akt, eNOS and ERK1/2) | Mean length of newly sprouted vessels from aortic rings ([2]; wild-type and LAR−/− mice, IGF-1 treatment, day 10)
COc1cc([C@@H]2c3cc4c(cc3[C@H](O)[C@H]3COC(=O)[C@@H]23)OCO4)cc(OC)c1OC [PPP, picropodophyllin] | significantly decreased | decreased in both wild-type and LAR^−/− mice | abrogated | significant inhibition | dose-dependent inhibition | significantly inhibited | – | –
IGF-1: Recombinant human IGF-1 purchased from R&D Systems | – | – | – | – | – | – | increased | significantly enhanced

Source: patent US20130171163A1, “Inhibition of LAR Phosphatase to Enhance Therapeutic Angiogenesis” (priority 2010, published 2013)
